From paper PMC7837216, “ISRIB Blunts the Integrated Stress Response by Allosterically Antagonising the Inhibitory Effect of Phosphorylated eIF2 on eIF2B” (Molecular Cell, 2021)
pEC50: −log10 of the molar value.

Tests used:
[1] = target: T1, eIF2B (decamer; ISRIB pocket formed by the β- and δ-subunits) (Homo sapiens, UniProt P49770+Q9UI10); experiment: fluorescence polarization, kinetic displacement by unlabelled ISRIB (koff); assay type: binding; parameters: gene EIF2B2; purified recombinant human eIF2B decamer; with eIF2Bβ (EIF2B2), with eIF2Bα, γ, ε in the decamer
[2] = target: T1, eIF2B (decamer; ISRIB pocket formed by the β- and δ-subunits); experiment: FP competition with FAM-ISRIB; BLI (ISRIB-induced dissociation of eIF2B from P-eIF2α-NTD); assay type: binding; parameters: gene EIF2B2; purified recombinant human eIF2B decamer; with eIF2Bβ (EIF2B2), with eIF2Bα, γ, ε in the decamer; P-eIF2α-NTD immobilised in the BLI assay

Compound	fluorescence polarization, kinetic displacement by unlabelled ISRIB (koff) [1] [s⁻¹]	pEC50 [2]
FAM-ISRIB	0.0123	
O=C(COc1ccc(Cl)cc1)N[C@H]1CC[C@H](NC(=O)COc2ccc(Cl)cc2)CC1 [ISRIB]		8.74
